Consider four compounds from ChEMBL document CHEMBL1159351, “New briaranes from the Taiwanese gorgonian Junceella juncea” (J Nat Prod, 2003).

Structures are written as SMILES. In brackets after ≈: the same amount, converted by molar mass. Activity calls are given as the source filed them. No cut-off for these calls is given here.

Format in all cases: functional, cell-based
One assay relates to HEPA 59T/VGH. In words: (§1) Cytotoxicity against human HEPA 59T/VGH cells by methylene blue dye assay.
For another assay, the system named is KB16. In words: (§2) Cytotoxicity against human KB16 cells by methylene blue dye assay.
The nature of assay [1]: as §1.
A short description of assay [2]: as §2.

With `CC(=O)O[C@H]1C[C@]2(CO2)[C@H]2[C@](C)([C@H]1OC(C)=O)[C@]1(OC(C)=O)/C=C\C(CO)=C/[C@@H]3OC(=O)[C@H](C)[C@@]3(O)[C@]21OC(C)=O`, the outcome in the assay on HEPA 59T/VGH and in the assay on KB16 was inactive.

For the compound `C=C1/C=C/[C@H](OC(C)=O)[C@@]2(C)[C@@H](OC(C)=O)CC[C@]3(CO3)[C@@H]2[C@H](OC(C)=O)[C@]2(O)[C@@H](C)C(=O)O[C@H]2[C@H]1Cl`, the outcome in the assay on HEPA 59T/VGH and in the assay on KB16 was inactive.

Consider `CC(=O)O[C@H]1[C@@H](OC(C)=O)[C@]2(CO2)[C@H]2[C@](C)([C@H]1OC(C)=O)[C@]1(OC(C)=O)/C=C\C(CO)=C/[C@@H]3OC(=O)[C@H](C)[C@@]3(O)[C@]21OC(C)=O` [JUNCENOLIDE C], for which the IC50 – broadly, the point on the concentration scale where inhibition reaches its midpoint – in assay [1] was determined as 6.6 µg/mL (≈ 10.4 µM); in assay [2], 7.8 µg/mL (≈ 12.3 µM).

Regarding `COCC1=C/[C@@H]2OC(=O)[C@H](C)[C@@]2(O)[C@]2(OC(C)=O)[C@H]3[C@@]4(CO4)[C@H](OC(C)=O)[C@H](OC(C)=O)[C@H](OC(C)=O)[C@]3(C)[C@]2(OC(C)=O)/C=C\1`, the outcome with HEPA 59T/VGH and in the assay on KB16 was inactive.
